Experimental data: US7968596B2, “Preparation and diabetic use of Gibberellins” (Australian Biomedical Company Pty, Ltd., priority 2001, dated 2011)

Tests used:
Diabetic Rats = assay: Effect on streptozotocin-induced diabetic rats (blood glucose, body weight); type: in vivo, Male Wistar rats; details: for Blood glucose level after day 20th, 2 hours: 2 hours after administration; for Blood glucose level after day 20th, 5 hours: 5 hours after administration
Protocol: Male Wistar rats (290 g˜330 g) were weighed and lightly anaesthetized (4% halothane, 2:1 O2/N2O) so that blood glucose levels could be measured via a tail vein sample, using a Precision Q.I.D. glucometer. Diabetes was then induced by a single tail vein injection of streptozotocin (STZ, 60 mg/kg), which was dissolved immediately prior to use in citrate buffer (50 mM citric acid and 50 mM trisodium citrate; pH 4.5). An equivalent volume of citrate buffer was injected into age-matched control rats.
Rats were housed in groups of two during the experiment. Animal house temperature was maintained at 20° C. (±2° C.) with a 12 hour light/dark cycle, and rats were allowed free access to food and water.
Forty-eight hours after the administration of STZ (60 mg/kg), a blood glucose sample was taken and animals with blood glucose levels≧16 mM were considered to be diabetic. Rats were then randomly divided into groups. The slow-acting, Lente Monotard insulin was used and Gibberellin sodium salt was made up as required in distilled water immediately prior to use. Blood glucose readings were obtained two hours or 5 hours after the administration of drug(s) every three days.

skin and eyes = details: in vivo; cited from earlier work
rats = details: cited from earlier work
Human skin cell culture = assay: Effect of Gibberellin A3 on cell growth compared to EGF in vitro (human skin cell culture, keratinocytes media); type: cell-based; details: for Results: cell growth / cell division rate: five days
Protocol: Human skin cell culture experiments were conducted by using keratinocytes media. Each well was seeded with 1,500 cells. Incubation was carried out at 37° C. for a period of five days.

mice = details: cited from earlier work
[1] = Group 1: Insulin 4 unit/rat sub-cutaneous daily
[2] = Group 2: Insulin 2 unit/rat sub-cutaneous daily
[3] = Keratinocyte medium containing no EGF, but containing Gibberellin A3 (5 μg/ml)
[4] = Perfect keratinocyte medium (containing EGF) plus Gibberellin A3 (5 μg/ml)

Row | Molecule | Body weight change on the 30th day (Diabetic Rats; [1]) | Blood glucose level after day 20th, 2 hours (Diabetic Rats; Group 1: Insulin 4 unit/rat sub-cutaneous daily, STZ diabetic rats) | Blood glucose level after day 20th, 5 hours (Diabetic Rats; [1]) | Body weight change on the 30th day (Diabetic Rats; [2]) [%] | Blood glucose level after day 20th, 2 hours (Diabetic Rats; [2]) | Blood glucose level after day 20th, 5 hours (Diabetic Rats; [2]) | irritation to skin and eyes (skin and eyes) | acute oral LD50 (rats) [mg/kg] | effect of presence of both EGF and Gibberellin A3 on the rate of cell growth (Human skin cell culture; Experiment 3.2, EGF plus Gibberellin A3 5 μg/ml) | stimulation of cell growth by Gibberellin A3 alone, compared to EGF (Human skin cell culture; Experiment 3.4, no EGF, Gibberellin A3 5 μg/ml) | Results: cell growth (Human skin cell culture; [3]) | cell division rate (Human skin cell culture; [3]) | Results: cell growth (Human skin cell culture; [4]) | cell division rate (Human skin cell culture; [4]) | acute oral LD50 (mice) [mg/kg]
1 | Insulin: slow-acting, Lente Monotard insulin | +8% | 4~5 mM | 3~5 mM | −8 | 15~18 mM | 14~16 mM | – | – | – | – | – | – | – | – | –
2 | C=C1C[C@]23C[C@@]1(O)CC[C@H]2[C@@]12C=C[C@H](O)[C@@](C)(C(=O)O1)[C@H]2[C@@H]3C(=O)O [Gibberellin A3] | – | – | – | – | – | – | non-irritating | 6300 | no additive effect | as effectively as EGF | Very good growth (cell | division rate = 100) | Very good growth (cell | division rate = 100) | > 15000
